Assay results taken from patent US20210070748A1, “INHIBITORS OF BRUTONS TYROSINE KINASE” (Pharmacyclics LLC, priority 2015, published 2021).
Like-named read-outs stand apart in the source and are kept apart here.

Columns and labels:
Format in all cases: biochemical
EGFR = EGFR (Homo sapiens, UniProt P00533); experiment: Inhibition of a panel of kinases, in vitro HotSpot kinase assay: EGFR
Procedure: (§1) The degree of inhibition of a panel of kinases is determined using the in vitro HotSpot kinase assay (purified enzymes, ^33P-ATP, an appropriate substrate and 1 μM ATP).

SRC = SRC (Homo sapiens, UniProt P12931); experiment: Inhibition of a panel of kinases, in vitro HotSpot kinase assay: SRC
Procedure: as §1

JAK3 = molecular target: T1, JAK3 (Homo sapiens, UniProt P52333); experiment: Inhibition of a panel of kinases, in vitro HotSpot kinase assay: JAK3; settings: read-out: IC50 JAK3
T1 sequence (P52333 1-1124): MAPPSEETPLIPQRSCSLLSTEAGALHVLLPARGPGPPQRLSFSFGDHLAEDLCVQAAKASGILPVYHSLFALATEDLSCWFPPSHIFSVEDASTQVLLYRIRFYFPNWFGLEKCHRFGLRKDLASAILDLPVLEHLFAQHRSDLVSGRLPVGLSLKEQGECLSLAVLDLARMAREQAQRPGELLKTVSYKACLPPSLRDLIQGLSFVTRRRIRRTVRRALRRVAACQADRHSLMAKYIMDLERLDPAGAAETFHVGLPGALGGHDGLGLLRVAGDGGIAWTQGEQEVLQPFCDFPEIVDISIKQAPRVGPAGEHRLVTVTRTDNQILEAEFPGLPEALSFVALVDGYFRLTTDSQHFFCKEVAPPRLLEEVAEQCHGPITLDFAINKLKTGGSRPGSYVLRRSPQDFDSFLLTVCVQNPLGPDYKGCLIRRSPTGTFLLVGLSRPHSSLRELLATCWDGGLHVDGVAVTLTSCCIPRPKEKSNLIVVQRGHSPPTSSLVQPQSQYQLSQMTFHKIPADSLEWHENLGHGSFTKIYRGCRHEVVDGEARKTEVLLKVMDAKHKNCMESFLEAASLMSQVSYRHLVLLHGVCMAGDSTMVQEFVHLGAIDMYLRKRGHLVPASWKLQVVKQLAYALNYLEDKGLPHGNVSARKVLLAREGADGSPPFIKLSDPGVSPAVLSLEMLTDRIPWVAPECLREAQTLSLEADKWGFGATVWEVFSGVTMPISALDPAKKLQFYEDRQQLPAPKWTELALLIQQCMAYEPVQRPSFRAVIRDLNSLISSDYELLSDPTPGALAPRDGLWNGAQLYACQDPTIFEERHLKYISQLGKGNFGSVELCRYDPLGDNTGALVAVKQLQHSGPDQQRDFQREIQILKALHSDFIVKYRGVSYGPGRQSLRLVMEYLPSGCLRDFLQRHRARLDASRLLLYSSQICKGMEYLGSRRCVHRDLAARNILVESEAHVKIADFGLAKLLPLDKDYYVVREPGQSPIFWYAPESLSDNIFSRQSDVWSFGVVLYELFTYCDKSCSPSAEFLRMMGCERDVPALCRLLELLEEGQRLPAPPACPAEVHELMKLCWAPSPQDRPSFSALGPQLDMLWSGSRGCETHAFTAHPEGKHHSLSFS

TEC = molecular target: T2, TEC (Homo sapiens, UniProt P42680); experiment: Inhibition of a panel of kinases, in vitro HotSpot kinase assay: TEC
T2 sequence (P42680 1-631): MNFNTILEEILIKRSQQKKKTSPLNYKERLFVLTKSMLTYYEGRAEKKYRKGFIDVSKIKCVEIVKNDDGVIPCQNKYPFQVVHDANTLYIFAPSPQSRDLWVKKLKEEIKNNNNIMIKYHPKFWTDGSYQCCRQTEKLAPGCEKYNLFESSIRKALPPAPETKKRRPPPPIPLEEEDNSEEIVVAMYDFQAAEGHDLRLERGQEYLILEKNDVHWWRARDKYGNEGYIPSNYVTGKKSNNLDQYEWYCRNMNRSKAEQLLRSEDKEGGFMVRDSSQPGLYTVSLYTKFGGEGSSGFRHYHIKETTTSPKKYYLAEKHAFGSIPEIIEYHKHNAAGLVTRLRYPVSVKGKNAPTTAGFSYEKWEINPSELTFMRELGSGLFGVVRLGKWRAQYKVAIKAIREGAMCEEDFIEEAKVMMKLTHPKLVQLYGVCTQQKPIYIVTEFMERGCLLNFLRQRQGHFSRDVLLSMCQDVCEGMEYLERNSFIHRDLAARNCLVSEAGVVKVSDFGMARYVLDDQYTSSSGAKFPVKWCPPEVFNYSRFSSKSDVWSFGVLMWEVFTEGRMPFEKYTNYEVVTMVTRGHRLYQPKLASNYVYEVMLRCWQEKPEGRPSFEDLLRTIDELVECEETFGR
Procedure: as §1

LCK = LCK (Homo sapiens, UniProt P06239); experiment: Inhibition of a panel of kinases, in vitro HotSpot kinase assay: LCK; settings: read-out: IC50 LCK
ITK = molecular target: T3, ITK (Homo sapiens, UniProt Q08881); experiment: Inhibition of a panel of kinases, in vitro HotSpot kinase assay: ITK
T3 sequence (Q08881 1-620): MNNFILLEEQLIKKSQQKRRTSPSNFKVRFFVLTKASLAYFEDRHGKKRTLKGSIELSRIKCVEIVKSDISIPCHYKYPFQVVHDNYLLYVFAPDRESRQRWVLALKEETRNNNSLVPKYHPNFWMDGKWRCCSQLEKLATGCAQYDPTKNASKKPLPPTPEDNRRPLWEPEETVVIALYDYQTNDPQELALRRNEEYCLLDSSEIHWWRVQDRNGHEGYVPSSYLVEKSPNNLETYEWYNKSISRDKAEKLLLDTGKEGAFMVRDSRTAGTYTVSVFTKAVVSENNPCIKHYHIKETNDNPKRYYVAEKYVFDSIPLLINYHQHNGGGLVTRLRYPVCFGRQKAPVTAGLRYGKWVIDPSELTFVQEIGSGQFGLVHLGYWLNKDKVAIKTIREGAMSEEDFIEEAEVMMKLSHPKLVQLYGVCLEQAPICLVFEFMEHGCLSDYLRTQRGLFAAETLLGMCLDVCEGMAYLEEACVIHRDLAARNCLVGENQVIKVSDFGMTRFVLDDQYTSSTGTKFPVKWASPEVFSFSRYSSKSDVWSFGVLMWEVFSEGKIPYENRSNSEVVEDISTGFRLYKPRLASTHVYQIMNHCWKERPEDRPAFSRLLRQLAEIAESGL
Procedure: as §1

[1] = Table 13, A compounds, 1 μM ATP

Sequence of EGFR (P00533 25-1210): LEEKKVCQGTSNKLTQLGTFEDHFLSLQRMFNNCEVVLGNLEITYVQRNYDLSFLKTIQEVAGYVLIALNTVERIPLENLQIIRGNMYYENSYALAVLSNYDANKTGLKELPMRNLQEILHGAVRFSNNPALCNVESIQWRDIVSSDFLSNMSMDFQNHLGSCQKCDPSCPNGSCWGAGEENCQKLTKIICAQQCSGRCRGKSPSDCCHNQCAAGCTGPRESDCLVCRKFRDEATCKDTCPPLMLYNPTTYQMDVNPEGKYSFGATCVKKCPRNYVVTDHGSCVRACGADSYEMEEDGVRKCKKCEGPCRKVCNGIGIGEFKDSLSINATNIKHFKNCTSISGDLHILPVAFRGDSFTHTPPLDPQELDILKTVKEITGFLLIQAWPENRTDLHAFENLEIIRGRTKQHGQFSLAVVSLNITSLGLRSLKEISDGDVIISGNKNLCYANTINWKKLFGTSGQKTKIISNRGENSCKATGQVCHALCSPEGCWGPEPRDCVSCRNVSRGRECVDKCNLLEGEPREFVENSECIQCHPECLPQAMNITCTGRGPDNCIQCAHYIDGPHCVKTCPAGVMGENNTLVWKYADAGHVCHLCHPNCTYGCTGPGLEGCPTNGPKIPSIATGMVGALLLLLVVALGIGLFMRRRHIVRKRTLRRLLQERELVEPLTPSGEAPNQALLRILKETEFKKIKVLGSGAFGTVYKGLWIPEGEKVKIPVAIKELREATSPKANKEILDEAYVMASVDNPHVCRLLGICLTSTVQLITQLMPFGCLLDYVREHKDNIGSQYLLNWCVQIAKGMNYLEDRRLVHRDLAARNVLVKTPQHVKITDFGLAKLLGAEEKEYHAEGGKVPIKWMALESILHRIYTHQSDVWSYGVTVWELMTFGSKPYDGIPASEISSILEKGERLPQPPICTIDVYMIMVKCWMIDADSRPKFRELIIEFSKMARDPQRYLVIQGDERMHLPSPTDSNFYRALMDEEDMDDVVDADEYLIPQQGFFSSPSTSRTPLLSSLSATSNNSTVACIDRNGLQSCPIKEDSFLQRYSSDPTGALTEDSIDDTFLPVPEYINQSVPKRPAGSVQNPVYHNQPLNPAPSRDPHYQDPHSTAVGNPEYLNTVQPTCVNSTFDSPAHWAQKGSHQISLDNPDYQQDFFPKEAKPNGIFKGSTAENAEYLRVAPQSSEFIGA
Sequence of SRC (P12931 whole entry): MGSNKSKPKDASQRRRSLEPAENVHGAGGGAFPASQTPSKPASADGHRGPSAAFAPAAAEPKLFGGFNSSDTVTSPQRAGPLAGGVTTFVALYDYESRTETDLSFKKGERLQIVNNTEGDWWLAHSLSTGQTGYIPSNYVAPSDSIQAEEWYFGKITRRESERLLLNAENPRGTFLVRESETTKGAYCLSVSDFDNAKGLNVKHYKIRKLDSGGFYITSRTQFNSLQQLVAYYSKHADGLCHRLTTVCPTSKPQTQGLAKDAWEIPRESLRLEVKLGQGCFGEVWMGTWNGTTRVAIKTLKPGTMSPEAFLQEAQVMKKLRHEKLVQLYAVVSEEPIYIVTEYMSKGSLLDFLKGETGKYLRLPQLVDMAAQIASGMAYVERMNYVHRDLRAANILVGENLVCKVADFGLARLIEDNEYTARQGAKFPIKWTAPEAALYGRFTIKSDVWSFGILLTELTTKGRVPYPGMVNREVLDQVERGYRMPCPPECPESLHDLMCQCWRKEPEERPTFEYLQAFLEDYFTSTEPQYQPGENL
Sequence of LCK (P06239 whole entry): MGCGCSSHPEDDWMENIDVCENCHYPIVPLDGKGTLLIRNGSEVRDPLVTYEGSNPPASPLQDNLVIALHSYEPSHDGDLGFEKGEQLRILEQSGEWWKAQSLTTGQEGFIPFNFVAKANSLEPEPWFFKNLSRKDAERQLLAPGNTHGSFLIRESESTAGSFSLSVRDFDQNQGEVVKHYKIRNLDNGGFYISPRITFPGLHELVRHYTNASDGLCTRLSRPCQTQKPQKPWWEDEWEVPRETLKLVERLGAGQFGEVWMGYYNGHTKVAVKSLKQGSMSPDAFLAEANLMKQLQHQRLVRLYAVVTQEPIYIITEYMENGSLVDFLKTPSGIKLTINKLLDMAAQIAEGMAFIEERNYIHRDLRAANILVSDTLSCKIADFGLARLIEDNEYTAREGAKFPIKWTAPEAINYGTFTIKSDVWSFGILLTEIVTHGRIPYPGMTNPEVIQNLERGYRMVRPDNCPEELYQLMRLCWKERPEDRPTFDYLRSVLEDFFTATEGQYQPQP

SMILES | IC50 (EGFR; [1]) | IC50 (SRC; [1]) | IC50 (JAK3; [1]) | IC50 (TEC; [1]) | IC50 (LCK; [1]) | IC50 (ITK; [1]) | IC50 (EGFR; E compounds, Table 17) | IC50 (SRC; E compounds, Table 17) | IC50 (JAK3; E compounds, Table 17) | IC50 (TEC; E compounds, Table 17) | IC50 (LCK; E compounds, Table 17) | IC50 (ITK; E compounds, Table 17)
C[C@@H]1[C@H](NC(=O)c2ccc(C3CC3)cc2F)CCCN1c1cnc(C(N)=O)c(Nc2ccc(C3(C)CCN(C4CC4)CC3)cc2)n1 [Example A-174, 5-[(2R,3R)-3-(4-cyclopropyl-2-fluorobenzamido)-2-methylpiperidin-1-yl]-3-{[4-(1-cyclopropyl-4-methylpiperidin-4-yl)phenyl]amino}pyrazine-2-carboxamide] | 100 to 1000 nM | 100 to 1000 nM | 10 to 100 nM | 10 to 100 nM | 10 to 100 nM | 100 to 1000 nM |  |  |  |  |  | 
Cn1cc(Nc2nc(N3C[C@H](NC(=O)c4ccc(C5CC5)cc4)CC(F)(F)C3)cnc2C(N)=O)cn1 [Example A-188, (R)-5-(5-(4-cyclopropylbenzamido)-3,3-difluoropiperidin-1-yl)-3-(1-methyl-1H-pyrazol-4-ylamino)pyrazine-2-carboxamide] | 1000 to 10000 nM | 100 to 1000 nM | 1000 to 10000 nM | 100 to 1000 nM | 100 to 1000 nM | 1000 to 10000 nM |  |  |  |  |  | 
CN(C)C(=O)N[C@@H]1CCCN(c2cnc(C(N)=O)c(Nc3ccc(C4(C)CCN(C5CCCC5)CC4)cc3)n2)[C@@H]1CO [Example A-101, 3-{[4-(1-cyclopentyl-4-methylpiperidin-4-yl)phenyl]amino}-5-[(2S,3R)-3-[(dimethylcarbamoyl)amino]-2-(hydroxymethyl)piperidin-1-yl]pyrazine-2-carboxamide] | 100 to 1000 nM | 100 to 1000 nM | 1000 to 10000 nM | 100 to 1000 nM | 100 to 1000 nM | 1000 to 10000 nM |  |  |  |  |  | 
CN1CCN(c2ccc(Nc3nc(N4CCC[C@@H](n5ccc6cc(C7CC7)cc(F)c6c5=O)C4)cnc3C(N)=O)cc2)CC1 [Example A-133, 5-[(3R)-3-(6-cyclo-propyl-8-fluoro-1-oxo-1,2-dihydroisoquinolin-2-yl)piperidin-1-yl]-3-{[4-(4-methylpiperazin-1-yl)phenyl]amino}pyrazine-2-carboxamide] | 100 to 1000 nM | 10 to 100 nM | 100 to 1000 nM | 10 to 100 nM | 100 to 1000 nM | 100 to 1000 nM |  |  |  |  |  | 
Cn1cc(Nc2nc(N3CCC[C@@H](n4ccc5cc(C6CC6)ccc5c4=O)C3)cnc2C(N)=O)cn1 [Example A-167, 5-[(3R)-3-(6-cyclopropyl-1-oxo-1,2-dihydroisoquinolin-2-yl)piperidin-1-yl]-3-[(1-methyl-1H-pyrazol-4-yl)amino]pyrazine-2-carboxamide] | > 10000 nM | 1000 to 10000 nM | > 10000 nM | 10 to 100 nM | 1000 to 10000 nM | > 10000 nM |  |  |  |  |  | 
Cc1cc(Nc2nc(N3CCC[C@@H](n4ccc5cc(C6CC6)ccc5c4=O)C3)cnc2C(N)=O)sn1 [Example A-107, 5-[(3R)-3-(6-cyclopropyl-1-oxo-1,2-dihydroisoquinolin-2-yl)piperidin-1-yl]-3-[(3-methyl-1,2-thiazol-5-yl)amino]pyrazine-2-carboxamide] | > 10000 nM | > 10000 nM | > 10000 nM | > 10000 nM | > 10000 nM | > 10000 nM |  |  |  |  |  | 
C[C@@H]1[C@H](NC(=O)c2ccc(C3CC3)cc2F)CCCN1c1cnc(C(N)=O)c(Nc2ccc(C3(C)CCN(C4CCCC4)CC3)cc2)n1 [Example A-121, 3-{[4-(1-cyclopentyl-4-methylpiperidin-4-yl)phenyl]amino}-5-[(2R,3R)-3-(4-cyclopropyl-2-fluorobenzamido)-2-methylpiperidin-1-yl]pyrazine-2-carboxamide] | 10 to 100 nM | ≤ 10 nM | 100 to 1000 nM | ≤ 10 nM | < 10 nM | 10 to 100 nM |  |  |  |  |  | 

Further lines, results first:

IC50 (EGFR; [1]) | IC50 (SRC; [1]) | IC50 (JAK3; [1]) | IC50 (TEC; [1]) | IC50 (LCK; [1]) | IC50 (ITK; [1]) | IC50 (EGFR; E compounds, Table 17) | IC50 (SRC; E compounds, Table 17) | IC50 (JAK3; E compounds, Table 17) | IC50 (TEC; E compounds, Table 17) | IC50 (LCK; E compounds, Table 17) | IC50 (ITK; E compounds, Table 17) | SMILES
 |  |  |  |  |  | 1000 to 10000 nM | 10 to 100 nM | 1000 to 10000 nM | 10 to 100 nM | 10 to 100 nM | 10 to 100 nM | C[C@@H]1[C@H](NC(=O)c2ccc(C3CC3)cc2)CCCN1c1cnc(C(N)=O)c(Nc2ccc(N3CCN(C4CCCC4)C[C@@H]3C)cc2)n1 [Example E-137, 3-((4-((S)-4-cyclopentyl-2-methylpiperazin-1-yl)phenyl)amino)-5-((2R,3R)-3-(4-cyclopropylbenzamido)-2-methyipiperidin-1-yl)pyrazine-2-carboxamide]
 |  |  |  |  |  | ≤ 10 nM | 10 to 100 nM | < 10 nM | ≤ 10 nM | 1000 to 10000 nM | ≤ 10 nM | C=CC(=O)N1CC[C@@H](N(C)c2nnc(C(N)=O)c(Nc3ccc(C(C)C)cc3)n2)C1 [Example E-26, (R)-3-((1-acryloylpyrrolidin-3-yl)(methyl)amino)-5-(4-isopropylphenylamino)-1,2,4-triazine-6-carboxamide]
 |  |  |  |  |  | 10 to 100 nM | ≤ 10 nM | < 10 nM | ≤ 10 nM | 10 to 100 nM | 10 to 100 nM | C=CC(=O)N[C@@H]1CCCN(c2cnc(C(N)=O)c(Nc3ccc(C4CCN(C5CC5)CC4)cc3)n2)[C@@H]1C [Example E-93, 5-((2R,3R)-3-acrylamido-2-methylpiperidin-1-yl)-3-(4-(1-cyclopropylpiperidin-4-yl)phenylamino)pyrazine-2-carboxamide]
 |  |  |  |  |  | 10 to 100 nM | 10 to 100 nM | < 10 nM | ≤ 10 nM | 100 to 1000 nM | ≤ 10 nM | C=CC(=O)N1CC[C@@H](N(C)c2nnc(C(N)=O)c(Nc3cc(C)ns3)n2)C1 [Example E-12, (R)-3-((1-acryloylpyrrolidin-3-yl)(methyl)amino)-5-(3-methylisothiazol-5-ylamino)-1,2,4-triazine-6-carboxamide]
 |  |  |  |  |  | ≤ 10 nM | 10 to 100 nM | < 10 nM | ≤ 10 nM | 10 to 100 nM | ≤ 10 nM | C=CC(=O)N1CCC[C@@H](Nc2nnc(C(N)=O)c(Nc3ccc(C4CCN(C(=O)CC)CC4)cc3)n2)C1 [Example E-45, (R)-3-(1-acryloylpiperidin-3-ylamino)-5-(4-(1-propionylpiperidin-4-yl)phenylamino)-1,2,4-triazine-6-carboxamide]
